Patent EP0284492A1, “Peptidic fractions inducing protective antibodies against the bovine leukemia virus, process for obtaining such fractions, their coding sequences and vaccines produced by these fractions” (RHONE MERIEUX, priority 1987, dated 1988)
Ends that are not written are not given here.

What was measured:
pseudotypes VSV (BLV) = assay type: cell-based, virus BLV
[1] = system: sérums d'animaux infectés par le virus BLV; assay type: binding, bovin, ovin

Sequence: EPRCPYVGADHFDCP (cysteine pairing not given here) [peptide 78-92, séquence 78-92 de la gp51]
- capacité à inhiber les pseudotypes (pseudotypes VSV (BLV)): remarquable capacité à inhiber les pseudotypes
- induction d'anticorps neutralisants (pseudotypes VSV (BLV)): induire des anticorps neutralisants
- reconnaissance de l'oligopeptide par les sérums [1]: reconnu à la fois par le sérum bovin (sérum n° 15) et le sérum ovin (sérum n° 65)
